PMC5218480 (PLoS ONE, 2017)

Tested on: MV-4-11 cells
Experiment: Gene expression microarray analysis (Affymetrix PrimeView) and GSEA
Assay type: cell-based, human
Parameters: RFU PODN (11730768_x_at) / Fold change /veh PODN (11730768_x_at) / RFU LINC00158 (11744669_a_at) / Fold change /veh LINC00158 (11744669_a_at) / RFU DUSP10 (11751237_a_at) / Fold change /veh DUSP10 (11751237_a_at) / RFU ID3 (11757404_x_at) / Fold change /veh ID3 (11757404_x_at) / RFU PLEKHG5 (11737974_s_at) / Fold change /veh PLEKHG5 (11737974_s_at) / RFU LRRC4B (11730491_at) / Fold change /veh LRRC4B (11730491_at) / RFU GIMAP4 (11747438_a_at) / Fold change /veh GIMAP4 (11747438_a_at) / RFU KRT8 (11758183_x_at) / Fold change /veh KRT8 (11758183_x_at) / RFU CNN1 (11734310_a_at) / Fold change /veh CNN1 (11734310_a_at) / RFU VPS37D (11726825_at) / Fold change /veh VPS37D (11726825_at) / RFU C10orf10 (11716522_x_at) / Fold change /veh C10orf10 (11716522_x_at) / RFU KIR2DL2 /// KIR2DL4 /// KIR2DL5A /// KIR2DL5B /// KIR2DS1 /// KIR2DS2 /// KIR2DS3 /// KIR2DS4 /// KIR3DL3 /// KIR3DL3 /// KIR3DS1 (11738374_at) / Fold change /veh KIR2DL2 /// KIR2DL4 /// KIR2DL5A /// KIR2DL5B /// KIR2DS1 /// KIR2DS2 /// KIR2DS3 /// KIR2DS4 /// KIR3DL3 /// KIR3DL3 /// KIR3DS1 (11738374_at) / RFU C1QL1 (11718748_at) / Fold change /veh C1QL1 (11718748_at) / RFU TMPRSS4 (11747572_a_at) / Fold change /veh TMPRSS4 (11747572_a_at) / RFU HAMP (11756126_x_at) / Fold change /veh HAMP (11756126_x_at) / RFU RNFT2 (11725882_a_at) / Fold change /veh RNFT2 (11725882_a_at) / RFU NR4A2 (11747474_a_at) / Fold change /veh NR4A2 (11747474_a_at) / RFU ABCC12 (11746883_a_at) / Fold change /veh ABCC12 (11746883_a_at) / RFU TMEM136 (11760407_x_at) / Fold change /veh TMEM136 (11760407_x_at) / RFU CLDN22 /// WWC2 (11732394_at) / Fold change /veh CLDN22 /// WWC2 (11732394_at) / RFU HLA-DPB1 (11760878_x_at) / Fold change /veh HLA-DPB1 (11760878_x_at) / RFU SPINT1 (11716480_a_at) / Fold change /veh SPINT1 (11716480_a_at) / RFU GAP43 (11754022_s_at) / Fold change /veh GAP43 (11754022_s_at) / RFU A4GNT (11735810_at) / Fold change /veh A4GNT (11735810_at) / RFU PRB3 (11715151_x_at) / Fold change /veh PRB3 (11715151_x_at) / RFU TUBB4B (11761932_at) / Fold change /veh TUBB4B (11761932_at) / RFU CAPN14 (11732068_a_at) / Fold change /veh CAPN14 (11732068_a_at) / RFU TMCC2 (11721928_a_at) / Fold change /veh TMCC2 (11721928_a_at) / RFU IRGQ (11745062_a_at) / Fold change /veh IRGQ (11745062_a_at) / RFU FAM174B (11720279_a_at) / Fold change /veh FAM174B (11720279_a_at) / RFU TMPRSS4 (11748680_a_at) / Fold change /veh TMPRSS4 (11748680_a_at) / RFU FAM212B (11763350_a_at) / Fold change /veh FAM212B (11763350_a_at) / RFU PLEKHG5 (11743358_a_at) / Fold change /veh PLEKHG5 (11743358_a_at) / RFU ZSCAN30 (11745921_a_at) / Fold change /veh ZSCAN30 (11745921_a_at) / RFU CMKLR1 (11741424_a_at) / Fold change /veh CMKLR1 (11741424_a_at) / RFU LOC101060620 /// MAPK8IP1 (11723275_at) / Fold change /veh LOC101060620 /// MAPK8IP1 (11723275_at) / RFU SPTSSB (11747773_x_at) / Fold change /veh SPTSSB (11747773_x_at) / RFU PRSS12 (11739890_at) / Fold change /veh PRSS12 (11739890_at) / RFU BIN1 (11741810_x_at) / Fold change /veh BIN1 (11741810_x_at) / RFU WNT11 (11732464_a_at) / Fold change /veh WNT11 (11732464_a_at) / RFU C10orf10 (11716521_a_at) / Fold change /veh C10orf10 (11716521_a_at) / RFU C5orf56 (11738089_at) / Fold change /veh C5orf56 (11738089_at) / RFU CYB561 (11721691_x_at) / Fold change /veh CYB561 (11721691_x_at) / RFU ANKRD19P (11752326_a_at) / Fold change /veh ANKRD19P (11752326_a_at) / RFU OR2T12 /// OR2T33 /// OR2T8 (11738714_s_at) / Fold change /veh OR2T12 /// OR2T33 /// OR2T8 (11738714_s_at) / RFU VCAN (11748164_a_at) / Fold change /veh VCAN (11748164_a_at) / RFU JSRP1 (11732532_at) / Fold change /veh JSRP1 (11732532_at) / RFU KRTAP10-11 (11738290_x_at) / Fold change /veh KRTAP10-11 (11738290_x_at) / RFU MYO3A (11730013_a_at) / Fold change /veh MYO3A (11730013_a_at) / RFU EBF3 (11725865_a_at) / Fold change /veh EBF3 (11725865_a_at) / RFU CAMK2N1 (11719241_x_at) / Fold change /veh CAMK2N1 (11719241_x_at) / RFU C5orf56 (11738088_a_at) / Fold change /veh C5orf56 (11738088_a_at) / RFU OLFML3 (11715873_a_at) / Fold change /veh OLFML3 (11715873_a_at) / RFU LOC100653217 /// NTM (11731650_a_at) / Fold change /veh LOC100653217 /// NTM (11731650_a_at) / RFU MAPK11 (11762145_a_at) / Fold change /veh MAPK11 (11762145_a_at) / RFU FIZ1 (11724087_x_at) / Fold change /veh FIZ1 (11724087_x_at) / RFU OASL (11726364_x_at) / Fold change /veh OASL (11726364_x_at) / RFU SOX15 (11748057_x_at) / Fold change /veh SOX15 (11748057_x_at) / RFU CD79A (11719716_a_at) / Fold change /veh CD79A (11719716_a_at) / RFU HIST1H1D (11736915_at) / Fold change /veh HIST1H1D (11736915_at) / RFU CASKIN2 (11723855_a_at) / Fold change /veh CASKIN2 (11723855_a_at) / RFU LOC730098 (11760151_x_at) / Fold change /veh LOC730098 (11760151_x_at) / RFU OR4N2 (11742367_at) / Fold change /veh OR4N2 (11742367_at) / RFU PRRT2 (11749266_a_at) / Fold change /veh PRRT2 (11749266_a_at) / RFU SNX32 (11753110_a_at) / Fold change /veh SNX32 (11753110_a_at) / RFU CDHR5 (11726645_a_at) / Fold change /veh CDHR5 (11726645_a_at) / RFU RCAN1 (11760418_a_at) / Fold change /veh RCAN1 (11760418_a_at) / RFU FAM167A (11723789_a_at) / Fold change /veh FAM167A (11723789_a_at) / RFU FAM26E (11764081_at) / Fold change /veh FAM26E (11764081_at) / RFU ISYNA1 (11749810_s_at) / Fold change /veh ISYNA1 (11749810_s_at) / RFU ACY1 (11761880_at) / Fold change /veh ACY1 (11761880_at) / RFU 11764098_at / Fold change /veh 11764098_at / RFU SAMD14 (11745864_x_at) / Fold change /veh SAMD14 (11745864_x_at) / RFU NPB (11741838_a_at) / Fold change /veh NPB (11741838_a_at) / RFU TMPRSS6 (11731388_a_at) / Fold change /veh TMPRSS6 (11731388_a_at) / RFU KRTAP10-2 (11738614_at) / Fold change /veh KRTAP10-2 (11738614_at) / RFU ARHGAP8 /// PRR5-ARHGAP8 (11727945_x_at) / Fold change /veh ARHGAP8 /// PRR5-ARHGAP8 (11727945_x_at) / RFU KRTAP5-7 /// NADSYN1 (11734609_at) / Fold change /veh KRTAP5-7 /// NADSYN1 (11734609_at) / RFU RASL12 (11751679_a_at) / Fold change /veh RASL12 (11751679_a_at) / RFU CDKN2B (11736163_a_at) / Fold change /veh CDKN2B (11736163_a_at) / RFU PRF1 (11729649_at) / Fold change /veh PRF1 (11729649_at) / RFU, ZNF638 /// ZNF638-IT1 / Fold change vs veh, ZNF638 /// ZNF638-IT1 / RFU, PANK3 / Fold change vs veh, PANK3 / RFU, SH3YL1 / Fold change vs veh, SH3YL1 / RFU, ZEB2 / Fold change vs veh, ZEB2 / RFU, NRIP1 / Fold change vs veh, NRIP1 / RFU, PTTG1IP / Fold change vs veh, PTTG1IP / RFU, CAPN2 / Fold change vs veh, CAPN2 / RFU, MED14 / Fold change vs veh, MED14 / RFU, SNORA58 / Fold change vs veh, SNORA58 / RFU, C1orf63 / Fold change vs veh, C1orf63 / RFU, LRRFIP1 / Fold change vs veh, LRRFIP1 / RFU, NDUFAF7 / Fold change vs veh, NDUFAF7 / RFU, SLC12A2 / Fold change vs veh, SLC12A2 / RFU, IBTK / Fold change vs veh, IBTK / RFU, ESF1 / Fold change vs veh, ESF1 / Fold change vs veh, TMEM50B / RFU, TAOK1 / Fold change vs veh, TAOK1 / RFU, ACBD3 / Fold change vs veh, ACBD3 / RFU, TMA16 / Fold change vs veh, TMA16 / RFU, RWDD3 / Fold change vs veh, RWDD3 / RFU, BCAT1 / Fold change vs veh, BCAT1 / RFU, EDEM3 / Fold change vs veh, EDEM3 / RFU, TMEM33 / Fold change vs veh, TMEM33 / RFU, WDR75 / Fold change vs veh, WDR75 / RFU, AHCTF1 / Fold change vs veh, AHCTF1 / RFU, TFRC / Fold change vs veh, TFRC / RFU, ZDHHC17 / Fold change vs veh, ZDHHC17 / RFU, NOM1 / Fold change vs veh, NOM1 / RFU, ARL8B / Fold change vs veh, ARL8B / RFU, ZBTB11 / Fold change vs veh, ZBTB11 / RFU, TAMM41 / Fold change vs veh, TAMM41 / RFU, KIAA1704 /// LOC100996395 / Fold change vs veh, KIAA1704 /// LOC100996395 / RFU, ING1 / Fold change vs veh, ING1 / RFU, TRMT61B / Fold change vs veh, TRMT61B / RFU, FUBP3 / Fold change vs veh, FUBP3 / RFU, TP53 / Fold change vs veh, TP53 / RFU, TNKS2 / Fold change vs veh, TNKS2 / RFU, ZFP14 / Fold change vs veh, ZFP14 / RFU, ACTR2 / Fold change vs veh, ACTR2 / RFU, PPP3R1 / Fold change vs veh, PPP3R1 / RFU, PIK3R1 / Fold change vs veh, PIK3R1 / RFU, HNRNPA1 / Fold change vs veh, HNRNPA1 / RFU, RNF170 / Fold change vs veh, RNF170 / RFU, ZNF28 / Fold change vs veh, ZNF28 / RFU, RNGTT / Fold change vs veh, RNGTT / RFU, OGT / Fold change vs veh, OGT / RFU, BRD1 / Fold change vs veh, BRD1 / RFU, MARS / Fold change vs veh, MARS / RFU, ZNF655 / Fold change vs veh, ZNF655 / RFU, FAHD1 / Fold change vs veh, FAHD1 / RFU, BDP1 / Fold change vs veh, BDP1 / RFU, LRRCC1 / Fold change vs veh, LRRCC1 / RFU, ARID1A / Fold change vs veh, ARID1A / RFU, ZNF146 / Fold change vs veh, ZNF146 / RFU, ZNF330 / Fold change vs veh, ZNF330 / RFU, GPN3 / Fold change vs veh, GPN3 / RFU, C9orf123 / Fold change vs veh, C9orf123 / RFU, N4BP2L2 / Fold change vs veh, N4BP2L2 / RFU, ARFIP1 / Fold change vs veh, ARFIP1 / RFU, FAM179B / Fold change vs veh, FAM179B / RFU, BCL10 / Fold change vs veh, BCL10 / RFU, UHRF1BP1L / Fold change vs veh, UHRF1BP1L / RFU, BET1 / Fold change vs veh, BET1 / RFU, CNOT2 / Fold change vs veh, CNOT2 / RFU, ZNF268 / Fold change vs veh, ZNF268 / Fold change vs veh, ZNF507 / RFU, DGCR2 / Fold change vs veh, DGCR2 / RFU, WDSUB1 / Fold change vs veh, WDSUB1 / Fold change vs veh, HSP90B1 /// MIR3652 / RFU, ADSS / Fold change vs veh, ADSS / RFU, GK / Fold change vs veh, GK / RFU, ZNF148 / Fold change vs veh, ZNF148 / RFU, TAF9 / Fold change vs veh, TAF9 / RFU, SLC1A5 / Fold change vs veh, SLC1A5 / RFU, SLMO2 / Fold change vs veh, SLMO2 / RFU, ABCC4 / Fold change vs veh, ABCC4 / RFU, LOC101060439 /// RAP1B / Fold change vs veh, LOC101060439 /// RAP1B / RFU, RFX7 / Fold change vs veh, RFX7 / RFU, GTPBP10 / Fold change vs veh, GTPBP10 / RFU, CNEP1R1 / Fold change vs veh, CNEP1R1 / RFU, BIVM-ERCC5 /// ERCC5 / Fold change vs veh, BIVM-ERCC5 /// ERCC5 / RFU, ILF3 / Fold change vs veh, ILF3 / RFU 11762660_at / Fold change /veh 11762660_at / RFU VCAN (11757783_s_at) / Fold change /veh VCAN (11757783_s_at) / RFU DDX43 (11728927_at) / Fold change /veh DDX43 (11728927_at) / RFU KRT8 (11758188_x_at) / Fold change /veh KRT8 (11758188_x_at) / RFU NKD1 (11759106_at) / Fold change /veh NKD1 (11759106_at) / RFU SRD5A1 (11742802_a_at) / Fold change /veh SRD5A1 (11742802_a_at) / RFU TPSAB1 /// TPSB2 (11721975_s_at) / Fold change /veh TPSAB1 /// TPSB2 (11721975_s_at) / RFU GSTM3 (11746129_a_at) / Fold change /veh GSTM3 (11746129_a_at) / RFU IL23R (11737362_x_at) / Fold change /veh IL23R (11737362_x_at) / RFU TMEM51 (11727254_a_at) / Fold change /veh TMEM51 (11727254_a_at) / RFU PIWIL2 (11732686_x_at) / Fold change /veh PIWIL2 (11732686_x_at) / RFU ORM1 (11744905_x_at) / Fold change /veh ORM1 (11744905_x_at) / RFU CCDC152 (11743942_at) / Fold change /veh CCDC152 (11743942_at) / RFU ECM1 (11717891_a_at) / Fold change /veh ECM1 (11717891_a_at) / RFU IL23R (11748794_a_at) / Fold change /veh IL23R (11748794_a_at) / RFU TNFAIP8L3 (11732012_x_at) / Fold change /veh TNFAIP8L3 (11732012_x_at) / RFU MBOAT4 (11741988_at) / Fold change /veh MBOAT4 (11741988_at) / RFU 11764193_at / Fold change /veh 11764193_at / RFU TMEM53 (11763286_at) / Fold change /veh TMEM53 (11763286_at) / RFU MAGEB2 (11727129_at) / Fold change /veh MAGEB2 (11727129_at) / RFU TMEM200A (11744735_a_at) / Fold change /veh TMEM200A (11744735_a_at) / RFU CCDC152 (11751479_a_at) / Fold change /veh CCDC152 (11751479_a_at) / RFU FAM211A (11726209_a_at) / Fold change /veh FAM211A (11726209_a_at) / RFU RGS16 (11746705_a_at) / Fold change /veh RGS16 (11746705_a_at) / RFU VCAN (11755009_s_at) / Fold change /veh VCAN (11755009_s_at) / RFU RHOB (11743442_s_at) / Fold change /veh RHOB (11743442_s_at) / RFU RGS16 (11720943_a_at) / Fold change /veh RGS16 (11720943_a_at) / RFU RGS16 (11720944_at) / Fold change /veh RGS16 (11720944_at) / RFU, VPS4B / Fold change vs veh, VPS4B / RFU, CREB1 / Fold change vs veh, CREB1 / RFU, DNAJC13 / Fold change vs veh, DNAJC13 / RFU, GNAQ / Fold change vs veh, GNAQ / RFU, CDK5R1 / Fold change vs veh, CDK5R1 / RFU, ZRANB3 / Fold change vs veh, ZRANB3 / RFU, CUL4A / Fold change vs veh, CUL4A / RFU, CCNY / Fold change vs veh, CCNY / RFU, UFL1 / Fold change vs veh, UFL1 / RFU, COG3 / Fold change vs veh, COG3 / RFU, DIAPH2 / Fold change vs veh, DIAPH2 / RFU, SKA2 / Fold change vs veh, SKA2 / RFU, AFF3 / Fold change vs veh, AFF3 / RFU, LMF1 / Fold change vs veh, LMF1 / RFU, IPO11 / Fold change vs veh, IPO11 / RFU, DFFB / Fold change vs veh, DFFB / RFU, FOXP1 / Fold change vs veh, FOXP1 / RFU, CARD8 / Fold change vs veh, CARD8 / RFU, STRN3 / Fold change vs veh, STRN3 / RFU, ADK / Fold change vs veh, ADK / RFU, RASSF2 / Fold change vs veh, RASSF2 / RFU, WIPF1 / Fold change vs veh, WIPF1 / RFU, LARP1B / Fold change vs veh, LARP1B / RFU, RASA1 / Fold change vs veh, RASA1 / RFU, RB1 / Fold change vs veh, RB1 / RFU, PPFIA1 / Fold change vs veh, PPFIA1 / RFU, MAT2A / Fold change vs veh, MAT2A / RFU, CCT5 / Fold change vs veh, CCT5 / RFU, WDR92 / Fold change vs veh, WDR92 / RFU, CUX1 / Fold change vs veh, CUX1 / RFU, TTC7A / Fold change vs veh, TTC7A / RFU, TMEM135 / Fold change vs veh, TMEM135 / RFU, DEPTOR / Fold change vs veh, DEPTOR / RFU, CPM / Fold change vs veh, CPM / RFU, DNAJB6 / Fold change vs veh, DNAJB6 / RFU, CACNA2D3 / Fold change vs veh, CACNA2D3 / RFU, DTX4 / Fold change vs veh, DTX4 / RFU, TFCP2 / Fold change vs veh, TFCP2 / RFU, GMCL1 /// GMCL1P1 / Fold change vs veh, GMCL1 /// GMCL1P1 / RFU, AEBP2 / Fold change vs veh, AEBP2 / RFU, SNHG1 /// SNORD22 /// SNORD25 /// SNORD26 /// SNORD27 /// SNORD28 /// SNORD29 /// SNORD31 / Fold change vs veh, SNHG1 /// SNORD22 /// SNORD25 /// SNORD26 /// SNORD27 /// SNORD28 /// SNORD29 /// SNORD31 / Fold change (Aza/veh), C12orf56 (ProbeSet 11735607_a_at) / Fold change (ACY-1035/veh), C12orf56 (ProbeSet 11735607_a_at) / Fold change (Aza/veh), FGFR1OP (ProbeSet 11751329_s_at) / Fold change (ACY-1035/veh), FGFR1OP (ProbeSet 11751329_s_at) / Fold change (Aza/veh), VPS36 (ProbeSet 11739960_a_at) / Fold change (ACY-1035/veh), VPS36 (ProbeSet 11739960_a_at) / RFU SYPL1 (11715823_x_at) / Fold change /veh SYPL1 (11715823_x_at) / RFU IGFBP7 (11715501_s_at) / Fold change /veh IGFBP7 (11715501_s_at) / RFU REEP3 (11722064_at) / Fold change /veh REEP3 (11722064_at) / RFU IGLL1 (11728026_x_at) / Fold change /veh IGLL1 (11728026_x_at): dose or concentration left out as unconfirmed
Conditions: ProbeSet 11749551_a_at; LIST B

For `Nc1ncn([C@@H]2O[C@H](CO)[C@@H](O)[C@H]2O)c(=O)n1` [azacitidine], the “Fold change vs veh, RNGTT” value was 1.02.
